pIC50: −log10 of the molar value.
Legend:
[1] = test system: OCI-LY10 cells; experiment: OCI-LY10 proliferation inhibition experiment; type: cell-based; conditions: human diffuse large B lymphoma cells, three days incubation
Protocol: TMD-8 cells are human diffuse large B lymphoma (Mingzhou Bio, MZ-0832), cultured in 10% FBS+1% PS 1640 medium; OCI-LY10 is human diffuse large B lymphoma (BeNa Culture Collection, BNCC337742), cultured in 10% FBS+1% PS IMDM. Day 1: Cells at logarithmic growth phase were taken, counted and inoculated 600 TMD-8 or 2000 OCI-LY10 cells in a 384-well cell culture plate and cultured overnight. Day 2: A 3-fold gradient concentration stock solution of 400× compound was prepared with DMSO, and diluted 40-fold to a 10× compound stock solution with culture medium. The 10× compound stock solution was added to each cell culture well with a final concentration of 1× compound stock solution and a DMSO content of 0.25%. DMSO was used as experimental control, and culture medium was used as blank control. The incubation was continued for three days after compound addition. On the fifth day, 25 μL of […] was added to each well, mixed well and incubated for 10 minutes, then the chemiluminescence value (RLU value) was read. The cell proliferation inhibition rate (%)=(RLUcontrol−RLUcompound)/(RLUcontrol−RLUblank)×100% was calculated. The compound gradient dilution concentration and the corresponding cell proliferation inhibition rate were fit by using XLFit four-parameter method, and IC50 value was calculated.

[2] = biological target: p-BTK (C481S) (Homo sapiens (Human), UniProt Q06187, C481S); experiment: p-BTK cell experiment, HEK293 transfected with C481S-BTK plasmid (P-BTK Y223 sandwich ELISA); type: cell-based; conditions: HEK293 cells, compound cultured for two hours
Chain of p-BTK (C481S) (Q06187 whole entry C481S): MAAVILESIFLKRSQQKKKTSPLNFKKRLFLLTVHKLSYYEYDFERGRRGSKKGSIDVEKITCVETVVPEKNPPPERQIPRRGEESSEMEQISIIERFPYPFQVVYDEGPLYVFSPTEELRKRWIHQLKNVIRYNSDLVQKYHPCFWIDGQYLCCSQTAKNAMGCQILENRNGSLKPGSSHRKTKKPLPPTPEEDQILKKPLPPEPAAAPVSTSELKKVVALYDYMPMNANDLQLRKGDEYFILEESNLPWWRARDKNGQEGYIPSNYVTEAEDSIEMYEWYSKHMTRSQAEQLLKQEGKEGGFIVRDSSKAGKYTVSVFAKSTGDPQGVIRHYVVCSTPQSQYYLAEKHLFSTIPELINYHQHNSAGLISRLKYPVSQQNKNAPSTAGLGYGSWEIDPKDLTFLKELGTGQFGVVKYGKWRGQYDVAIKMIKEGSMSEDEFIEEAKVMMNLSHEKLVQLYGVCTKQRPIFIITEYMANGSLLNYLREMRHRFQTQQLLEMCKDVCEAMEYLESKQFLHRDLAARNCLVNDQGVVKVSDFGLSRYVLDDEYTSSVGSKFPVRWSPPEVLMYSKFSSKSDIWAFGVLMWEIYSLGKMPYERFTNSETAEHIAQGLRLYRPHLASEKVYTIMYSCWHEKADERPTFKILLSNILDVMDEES
Protocol: (§1) Day 1: HEK293 cells (ADDEXBIO, T0011001) at logarithmic growth phase were taken, digested with enzyme EDTA, collected and counted, and 2E6 cells were inoculated in a 10 cm culture dish and cultured overnight. Day 2: A mixed solution containing 6 μg of WT-BTK/C481S-BTK plasmid and 18 μL of FuGENE HD transfection reagent was prepared by using 1000 μL of Opti-MEM. After standing at room temperature for 10 minutes, the mixed solution was slowly added to the culture dish with a pipettor and cultured overnight. Day 3: The culture dish was taken out, and the cells were digested with enzyme EDTA, collected and counted, and 1E4 cells were inoculated in a 96-well cell culture plate and cultured overnight. A 3.16-fold gradient concentration stock solution of 1000× compound was prepared using DMSO, and placed at room temperature. Day 4: A prepared 1000× compound stock solution was taken, and diluted 200-fold to 5× compound stock solution with culture medium. 5× compound stock solution was added to each cell culture well with a final concentration of 1× compound stock solution and a DMSO content of 0.1%. DMSO was used as an experimental control. After the compound was added and cultured for two hours, the residual culture medium was removed. 100 μL of cell lysis buffer was added to each well, stood on ice for 30 minutes, and ultrasonically lysed with ice water for 5 minutes. After diluting the cell lysate in proportion, 80 μL of the mixture was transfer to an ELISA plate, and 80 μL of cell lysis buffer was added to the blank well. After incubating in an incubator at 37° C. for 2 hours, the plate was taken and the antibody incubation and color development termination operation were completed according to the instructions of Pathscan P-BTK (Y223) Sandwich ELISA Kit (Cell Signaling #23843 CA), and finally the OD value was read. The inhibition rate of the compound (%)=(ODcontrol−ODcompound)/(ODcontrol−ODblank)×100% was calculated. The compound gradient dilution concentration and the corresponding cell proliferation inhibition rate were fit by using Prism 8 four-parameter method, and IC50 value was calculated.

[3] = test system: TMD-8 cells; experiment: TMD-8 proliferation inhibition experiment; type: cell-based; conditions: human diffuse large B lymphoma cells, three days incubation
Outline: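 Log-phase cells seeded in 384-well plates (600 TMD-8 in RPMI 1640, 2000 OCI-LY10 in IMDM, both 10% FBS), then exposed one day later to 3-fold compound dilutions at 0.25% DMSO for three days. ADP-Glo luminescence read; inhibition versus DMSO and medium-only blank, IC50 by four-parameter fit.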

[4] = biological target: p-BTK (WT) (Homo sapiens (Human), UniProt Q06187); experiment: p-BTK cell experiment, HEK293 transfected with WT-BTK plasmid (P-BTK Y223 sandwich ELISA); type: cell-based; conditions: HEK293 cells, compound cultured for two hours
Chain of p-BTK (WT) (Q06187 whole entry): as the sequence (Q06187 whole entry C481S) above, with S481C counted along it
Protocol: as §1

[5] = biological target: BTK (C481S) (Homo sapiens (Human), UniProt Q06187, C481S); experiment: BTK C481S enzyme experiment (ADP-Glo kinase assay); type: biochemical; conditions: 10 nM BTK C481S, ATP 125 μM, Poly(Glu4, Tyr1), 90 minutes at 20° C.
Chain of BTK (C481S) (Q06187 whole entry C481S): as the sequence (Q06187 whole entry C481S) above
Outline: (§2)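 Wild-type or C481S BTK, added as 2× solution at 10 nM, preincubated 10 min with 3-fold compound dilutions in 50 mM HEPES pH 7.5, 10 mM MgCl2, 2 mM DTT, 0.0015% Brij-35. ADP-Glo luminescence norm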

[6] = biological target: BTK (Homo sapiens (Human), UniProt Q06187); experiment: BTK enzyme experiment (ADP-Glo kinase assay); type: biochemical; conditions: 10 nM BTK, ATP 125 μM, Poly(Glu4, Tyr1), 90 minutes at 20° C.; read-out: BTK(WT) IC50
Chain of BTK (Q06187 whole entry): as the sequence (Q06187 whole entry C481S) above, with S481C counted along it
Outline: as §2

## CN1CC[C@]2(C1)Nc1c(cnc3[nH]cc(C(=O)c4ccc(Oc5ccccc5)cc4Cl)c13)NC2=O (single isomer, unassigned) [Z2-1]
[1]
  pIC50: 6.70
[2]
  pIC50: 7.30
[3]
  pIC50: 6.91
[4]
  pIC50: 7.53
[5]
  pIC50: 8.04
[6]
  pIC50: 7.72

## CN1CC[C@@]2(C1)Nc1c(cnc3[nH]cc(C(=O)c4ccc(Oc5ccccc5)cc4Cl)c13)NC2=O (single isomer, unassigned) [Z2-2]
[1]
  pIC50: 6.51
[2]
  pIC50: 7.25
[3]
  pIC50: 6.58
[4]
  pIC50: 7.38
[5]
  pIC50: 7.96
[6]
  pIC50: 7.60

## CN1CCC2(C1)Nc1c(cnc3[nH]cc(C(=O)c4ccc(Oc5ccccc5)cc4Cl)c13)NC2=O (stereo not shown) [Z2]
[1]
  pIC50: 6.62
[2]
  pIC50: 7.14
[3]
  pIC50: 6.73
[4]
  pIC50: 6.91
[5]
  pIC50: 7.91
[6]
  pIC50: 7.71

## CC1(CO)Nc2c(cnc3[nH]cc(C(=O)c4ccc(Oc5ccccc5)cc4Cl)c23)NC1=O (stereo not shown) [Z9, 9-(2-chloro-4-phenoxybenzoyl)-2-(hydroxymethyl)-2-methyl-1,2,4,7-tetrahydro-3H-pyrrolo[3′,2′:5,6]pyrido[3,4-b]pyrazin-3-one]
[2]
  pIC50: 7.24
[3]; Homo sapiens, TMD8, 72 h
  pIC50: 6.63
[4]
  pIC50: 7.63
[5]
  pIC50: 7.84
[6]
  pIC50: 7.64

## COC[C@]1(C)Nc2c(cnc3[nH]cc(C(=O)c4ccc(Oc5ccccc5)cc4Cl)c23)NC1=O [Z13-1]
[2]
  pIC50: 7.37
[3]
  pIC50: 7.42
[4]
  pIC50: 7.44
[5]
  pIC50: 8.01
[6]
  pIC50: 7.94

## O=C(c1ccc(Oc2ccccc2)cc1Cl)c1c[nH]c2ncc3c(c12)NC1(CCOCC1)C(=O)N3 [Z14]
[2]
  pIC50: 7.56
[3]
  pIC50: 7.24
[4]
  pIC50: 7.50
[5]
  pIC50: 8.29
[6]
  pIC50: 8.12

## COCC[C@]1(C)Nc2c(cnc3[nH]cc(C(=O)c4ccc(Oc5ccccc5)cc4Cl)c23)NC1=O [Z78-2]
[2]
  pIC50: 6.93
[3]
  pIC50: 6.60
[4]
  pIC50: 7.17
[5]
  pIC50: 7.76
[6]
  pIC50: 7.99

## COC[C@]1(C)Nc2c(cnc3[nH]cc(C(=O)c4ccc(Oc5nccc(C)c5F)cc4Cl)c23)NC1=O [Z132, 9-(2-chloro-4-((3-fluoro-4-methylpyridin-2-yl)oxy)benzoyl)-2-(methoxymethyl)-2-methyl-4,7-dihydro-1H-pyrrolo[3′,2′:5,6]pyrido[3,4-b]pyrazin-3(2H)-one]
[2]
  pIC50: 7.44
[3]; Homo sapiens, TMD8, 72 h
  pIC50: 6.88
[4]
  pIC50: 7.78
[5]
  pIC50: 7.81
[6]
  pIC50: 7.93

## COC[C@]1(C)Nc2c(cnc3[nH]cc(C(=O)c4ccc(Oc5ccccn5)cc4Cl)c23)NC1=O [Z136, (S)-9-(2-chloro-4-(pyridin-2-yloxy)benzoyl)-2-(methoxymethyl)-2-methyl-1,2,4,7-tetrahydro-3H-pyrrolo[3′,2′:5,6]pyrido[3,4-b]pyrazin-3-one]
[2]
  pIC50: 6.94
[3]; Homo sapiens, TMD8, 72 h
  pIC50: 6.75
[4]
  pIC50: 7.09
[5]
  pIC50: 8.12
[6]
  pIC50: 8.17

## CN(C)C1CCC2(C1)Nc1c(cnc3[nH]cc(C(=O)c4ccc(Oc5ccccc5)cc4Cl)c13)NC2=O (stereo not shown) [Z137]
[2]
  pIC50: 7.31
[3]
  pIC50: 6.86
[4]
  pIC50: 7.30
[5]
  pIC50: 7.99
[6]
  pIC50: 7.89

## O=C(c1ccc(Oc2ccccc2)cc1Cl)c1c[nH]c2ncc3c(c12)NC1(CCC(N2CCOCC2)C1)C(=O)N3 (stereo not shown) [Z141, 9′-(2-chloro-4-phenoxybenzoyl)-3-morpholino-4′,7′-dihydrospiro[cyclopentane-1,2′-pyrrolo[3′,2′:5,6]pyrido[3,4-b]pyrazin]-3′(1′H)-one]
[2]
  pIC50: 7.65
[3]; Homo sapiens, TMD8, 72 h
  pIC50: 7.23
[4]
  pIC50: 7.69
[5]
  pIC50: 8.29
[6]
  pIC50: 7.94

## [2H]C([2H])([2H])[C@@]1(COC)Nc2c(cnc3[nH]cc(C(=O)c4ccc(Oc5ccccc5)cc4Cl)c23)NC1=O [Z149, (S)-9-(2-chloro-4-phenoxybenzoyl)-2-(methoxymethyl)-2-(methyl-d3)-1,2,4,7-tetrahydro-3H-pyrrolo[3′,2′:5,6]pyrido[3,4-b]pyrazin-3-one]
[2]
  pIC50: 7.48
[3]; Homo sapiens, TMD8, 72 h
  pIC50: 6.89
[4]
  pIC50: 7.71
[5]
  pIC50: 7.88
[6]
  pIC50: 7.63

## COC[C@]1(C)Nc2c(cnc3[nH]cc(C(=O)c4ccc(Oc5ccccc5F)cc4Cl)c23)NC1=O [Z155, (S)-9-(2-chloro-4-(2-fluorophenoxy)benzoyl)-2-(methoxymethyl)-2-methyl-1,2,4,7-tetrahydro-3H-pyrrolo[3′,2′:5,6]pyrido[3,4-b]pyrazin-3-one]
[2]
  pIC50: 7.32
[3]; Homo sapiens, TMD8, 72 h
  pIC50: 7.06
[4]
  pIC50: 7.55
[5]
  pIC50: 7.97
[6]
  pIC50: 8.07

## [2H]C([2H])([2H])OC[C@]1(C)Nc2c(cnc3[nH]cc(C(=O)c4ccc(Oc5ccccc5F)cc4Cl)c23)NC1=O [Z160, (S)-9-(2-chloro-4-(2-fluorophenoxy)benzoyl)-2-((methoxy-d3)methyl)-2-methyl-1,2,4,7-tetrahydro-3H-pyrrolo[3′,2′:5,6]pyrido[3,4-b]pyrazin-3-one]
[2]
  pIC50: 7.56
[3]; Homo sapiens, TMD8, 72 h
  pIC50: 6.97
[4]
  pIC50: 7.78
[5]
  pIC50: 7.67
[6]
  pIC50: 7.77

## [2H]C([2H])([2H])OC[C@]1(C([2H])([2H])[2H])Nc2c(cnc3[nH]cc(C(=O)c4ccc(Oc5ccccc5)cc4Cl)c23)NC1=O [Z161, (S)-9-(2-chloro-4-phenoxybenzoyl)-2-((methoxy-d3)methyl)-2-(methyl-d3)-1,2,4,7-tetrahydro-3H-pyrrolo[3′,2′:5,6]pyrido[3,4-b]pyrazin-3-one]
[2]
  pIC50: 7.41
[3]; Homo sapiens, TMD8, 72 h
  pIC50: 7.14
[4]
  pIC50: 7.77
[5]
  pIC50: 7.90
[6]
  pIC50: 7.97

## COC[C@]1(C)Nc2c(cnc3[nH]cc(C(=O)c4ccc(Oc5c(F)cccc5OC)cc4Cl)c23)NC1=O [Z168, (S)-9-(2-chloro-4-(2-fluoro-6-methoxyphenoxy)benzoyl)-2-(methoxymethyl)-2-methyl-1,2,4,7-tetrahydro-3H-pyrrolo[3′,2′:5,6]pyrido[3,4-b]pyrazin-3-one]
[2]
  pIC50: 8.14
[3]; Homo sapiens, TMD8, 72 h
  pIC50: 7.65
[4]
  pIC50: 8.40
[5]
  pIC50: 8.18
[6]
  pIC50: 8.35

## COC[C@]1(C)Nc2c(cnc3[nH]cc(C(=O)c4ccc(Oc5cc(F)ccc5OC)cc4Cl)c23)NC1=O [Z169, (S)-9-(2-chloro-4-(5-fluoro-2-methoxyphenoxy)benzoyl)-2-(methoxymethyl)-2-methyl-1,2,4,7-tetrahydro-3H-pyrrolo[3′,2′:5,6]pyrido[3,4-b]pyrazin-3-one]
[2]
  pIC50: 7.70
[3]; Homo sapiens, TMD8, 72 h
  pIC50: 7.33
[4]
  pIC50: 7.99
[5]
  pIC50: 8.05
[6]
  pIC50: 8.07

From patent US20240360154A1, “AROYL SUBSTITUTED TRICYCLIC COMPOUND, PREPARATION METHOD THEREFOR AND USE THEREOF” (GENFLEET THERAPEUTICS (SHANGHAI) INC., priority 2020, published 2024)
